This is an account of results in ChEMBL document CHEMBL4251726, “ATR Inhibitors as Potential Treatment for Cancers” (ACS Med Chem Lett, 2018).

Molecules are shown by their SMILES.

For orientation: IC50 means the point on the concentration scale where inhibition reaches its midpoint.

One assay has as its target ATR/ATRIP (Homo sapiens, UniProt Q13535). Nature of the assay: Inhibition of recombinant human full length ATR/ATRIP expressed in mammalian expression system using c-Myc-tagged p53 as substrate incubated for 15 mins followed by substrate addition measured after 25 to 35 mins by TR-FRET assay. On the technique in general: In TR-FRET formats the signal depends on donor and acceptor labels being close together.

For assay [1], the target named is T1, Serine/threonine-protein kinase ATR (Homo sapiens, UniProt Q13535). Nature of the assay: Inhibition of ATR in human HT29 cells assessed as reduction in Chk1 phosphorylation at Ser345 residues after 4 hrs by Alexa Fluor 488 staining based fluorescence assay. The format is cell-based.
T1 sequence (Q13535 whole entry, the tested form may be a part): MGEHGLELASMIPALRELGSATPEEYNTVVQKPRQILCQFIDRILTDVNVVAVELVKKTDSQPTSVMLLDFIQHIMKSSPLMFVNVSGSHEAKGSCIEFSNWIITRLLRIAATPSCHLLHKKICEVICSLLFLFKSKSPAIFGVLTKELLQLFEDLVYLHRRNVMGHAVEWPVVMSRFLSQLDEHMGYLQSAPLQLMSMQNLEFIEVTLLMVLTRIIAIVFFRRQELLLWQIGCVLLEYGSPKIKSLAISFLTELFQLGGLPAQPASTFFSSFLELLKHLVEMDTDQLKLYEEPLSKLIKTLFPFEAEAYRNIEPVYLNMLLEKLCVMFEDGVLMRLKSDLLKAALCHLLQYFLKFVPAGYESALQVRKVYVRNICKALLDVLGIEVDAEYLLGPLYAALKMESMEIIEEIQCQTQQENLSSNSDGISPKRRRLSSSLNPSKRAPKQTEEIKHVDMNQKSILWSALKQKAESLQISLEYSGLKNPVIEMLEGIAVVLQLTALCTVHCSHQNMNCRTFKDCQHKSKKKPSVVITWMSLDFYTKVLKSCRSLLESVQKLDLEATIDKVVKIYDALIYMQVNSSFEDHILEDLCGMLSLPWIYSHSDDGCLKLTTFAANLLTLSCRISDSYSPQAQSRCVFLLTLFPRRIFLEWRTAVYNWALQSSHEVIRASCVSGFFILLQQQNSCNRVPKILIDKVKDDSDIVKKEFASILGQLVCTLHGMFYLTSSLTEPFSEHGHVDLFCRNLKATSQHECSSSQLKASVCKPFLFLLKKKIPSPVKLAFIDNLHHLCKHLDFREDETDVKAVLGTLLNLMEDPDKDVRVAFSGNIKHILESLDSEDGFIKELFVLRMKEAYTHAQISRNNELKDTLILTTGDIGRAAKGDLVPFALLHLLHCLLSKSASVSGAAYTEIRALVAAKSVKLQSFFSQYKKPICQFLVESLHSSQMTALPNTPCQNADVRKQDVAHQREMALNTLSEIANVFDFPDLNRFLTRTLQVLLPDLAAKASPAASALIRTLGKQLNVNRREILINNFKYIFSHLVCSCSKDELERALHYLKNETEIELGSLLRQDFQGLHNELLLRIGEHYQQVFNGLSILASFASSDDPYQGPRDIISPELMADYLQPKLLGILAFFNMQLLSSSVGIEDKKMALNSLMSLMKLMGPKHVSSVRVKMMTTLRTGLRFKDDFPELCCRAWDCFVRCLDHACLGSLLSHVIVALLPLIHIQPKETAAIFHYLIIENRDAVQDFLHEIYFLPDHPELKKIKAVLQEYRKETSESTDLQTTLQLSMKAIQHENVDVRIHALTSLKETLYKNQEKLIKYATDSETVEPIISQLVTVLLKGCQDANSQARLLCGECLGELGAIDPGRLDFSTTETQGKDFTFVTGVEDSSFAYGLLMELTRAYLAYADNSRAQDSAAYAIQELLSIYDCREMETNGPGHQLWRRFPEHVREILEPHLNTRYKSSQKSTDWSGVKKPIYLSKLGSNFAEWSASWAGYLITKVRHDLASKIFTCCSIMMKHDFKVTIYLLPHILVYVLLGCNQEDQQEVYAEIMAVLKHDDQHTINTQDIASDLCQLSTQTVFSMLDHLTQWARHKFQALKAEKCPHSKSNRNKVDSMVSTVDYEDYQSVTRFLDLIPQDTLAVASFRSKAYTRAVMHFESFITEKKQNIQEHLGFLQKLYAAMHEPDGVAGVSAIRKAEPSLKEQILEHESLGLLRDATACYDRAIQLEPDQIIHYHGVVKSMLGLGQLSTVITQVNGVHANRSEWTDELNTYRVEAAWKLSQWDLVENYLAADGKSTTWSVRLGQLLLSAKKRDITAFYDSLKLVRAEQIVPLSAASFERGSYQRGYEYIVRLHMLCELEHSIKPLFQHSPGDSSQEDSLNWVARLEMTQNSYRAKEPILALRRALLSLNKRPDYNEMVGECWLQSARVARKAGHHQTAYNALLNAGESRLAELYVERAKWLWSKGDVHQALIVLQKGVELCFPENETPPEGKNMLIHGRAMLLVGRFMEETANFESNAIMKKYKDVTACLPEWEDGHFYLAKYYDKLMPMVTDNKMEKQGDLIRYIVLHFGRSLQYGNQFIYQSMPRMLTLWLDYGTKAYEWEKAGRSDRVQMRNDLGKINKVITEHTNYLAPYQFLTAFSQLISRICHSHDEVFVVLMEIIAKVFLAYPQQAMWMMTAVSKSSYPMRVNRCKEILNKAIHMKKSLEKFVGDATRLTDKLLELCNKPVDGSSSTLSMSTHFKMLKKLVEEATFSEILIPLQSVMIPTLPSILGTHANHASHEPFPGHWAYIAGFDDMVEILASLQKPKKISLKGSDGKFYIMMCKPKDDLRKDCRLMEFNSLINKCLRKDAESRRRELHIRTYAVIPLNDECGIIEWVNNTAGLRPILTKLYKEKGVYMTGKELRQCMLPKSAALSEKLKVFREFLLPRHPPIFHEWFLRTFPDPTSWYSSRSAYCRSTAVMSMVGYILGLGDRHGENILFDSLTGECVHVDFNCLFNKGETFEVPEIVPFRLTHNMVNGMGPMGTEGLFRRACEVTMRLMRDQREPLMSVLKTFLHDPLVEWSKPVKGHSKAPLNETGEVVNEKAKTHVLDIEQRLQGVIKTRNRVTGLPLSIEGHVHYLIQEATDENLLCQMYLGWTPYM
Assay [2] concerns the target T1, Serine/threonine-protein kinase ATR. Briefly: Inhibition of ATR in human U2OS cells harboring ER-LBD fused TopBPI activation domain (978 to 1286 residues) assessed as reduction in 4-OHT-mediated nuclear translocation of TopBPI fragment by measuring gammaH2AX level after 24 hrs by Alexa Fluor 488 staining based fluorescence assay. The format is cell-based.

Sequence of ATR/ATRIP (Q13535 whole entry): as the sequence (Q13535 whole entry, the tested form may be a part) above
Sequence of ATR/ATRIP (Q8WXE1 whole entry, further chain): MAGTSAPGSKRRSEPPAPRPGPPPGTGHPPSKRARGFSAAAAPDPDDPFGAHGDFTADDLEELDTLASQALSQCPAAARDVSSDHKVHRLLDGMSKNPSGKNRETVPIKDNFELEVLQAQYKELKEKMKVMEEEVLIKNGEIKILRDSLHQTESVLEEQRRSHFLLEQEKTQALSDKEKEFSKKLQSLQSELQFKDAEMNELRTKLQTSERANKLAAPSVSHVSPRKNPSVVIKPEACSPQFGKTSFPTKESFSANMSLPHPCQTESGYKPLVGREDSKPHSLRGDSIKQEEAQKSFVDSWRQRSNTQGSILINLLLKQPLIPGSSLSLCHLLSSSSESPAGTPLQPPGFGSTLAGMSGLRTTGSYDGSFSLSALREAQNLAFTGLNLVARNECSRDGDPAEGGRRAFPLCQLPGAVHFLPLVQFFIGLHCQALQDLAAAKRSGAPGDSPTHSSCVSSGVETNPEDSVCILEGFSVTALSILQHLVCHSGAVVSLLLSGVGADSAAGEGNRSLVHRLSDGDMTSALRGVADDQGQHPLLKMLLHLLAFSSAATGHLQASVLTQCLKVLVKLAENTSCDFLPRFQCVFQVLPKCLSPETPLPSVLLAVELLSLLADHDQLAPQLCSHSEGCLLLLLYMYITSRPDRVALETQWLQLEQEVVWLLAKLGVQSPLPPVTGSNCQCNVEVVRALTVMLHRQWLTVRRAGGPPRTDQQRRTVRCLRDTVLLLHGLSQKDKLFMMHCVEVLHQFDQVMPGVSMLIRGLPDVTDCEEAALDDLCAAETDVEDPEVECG

As to `CNc1nc2ccccc2n1-c1nc2c(c(C(C)(C)S(C)(=O)=O)n1)OC[C@@H]1COC[C@@H](C)N21`, the results for the IC50 (at ATR/ATRIP; in assay [1]; in assay [2]) were less than 0.001 µM, less than 0.01 µM and less than 0.01 µM, respectively.
As to `CNc1nccn1-c1nc2c(c(C(C)(C)S(C)(=O)=O)n1)OC[C@@H]1COC[C@@H](C)N21`, the IC50 on ATR/ATRIP was 0.01 to 0.1 µM; in assay [2] it was 0.1 to 1 µM.
Take `CNc1cnc2[nH]ccc2c1-c1nc2c(c(C(C)(C)S(C)(=O)=O)n1)OC[C@@H]1COC[C@@H](C)N21`: the IC50 on ATR/ATRIP was less than 0.001 µM; in assay [1], less than 0.01 µM; in assay [2], 0.01 to 0.1 µM.
Consider `C[C@@H]1COC[C@H]2COc3c(nc(N(C)c4ccn[nH]4)nc3C(C)(C)S(C)(=O)=O)N21`, for which, at ATR/ATRIP, the IC50 was in the range of 0.01 to 0.1 µM.
Take `CNc1cnc2[nH]ccc2c1-c1nc2c(c(C(C)(C)O)n1)OC[C@@H]1COC[C@@H](C)N21`: the IC50 is less than 0.001 µM at ATR/ATRIP, 0.01 to 0.1 µM in assay [1] and 0.01 to 0.1 µM in assay [2].
On to `CCNc1cnc2[nH]ccc2c1-c1nc2c(c(C(C)(C)S(C)(=O)=O)n1)OC[C@@H]1COC[C@@H](C)N21`, for which the IC50 fell in the range of 0.001 to 0.01 µM on ATR/ATRIP and 0.01 to 0.1 µM in assay [1].
